Measured values as given in ChEMBL document CHEMBL1287660, “Pharmacophore modeling and virtual screening studies for new VEGFR-2 kinase inhibitors” (Eur J Med Chem, 2010).

These compounds were tested against Vascular endothelial growth factor receptor 2 (Homo sapiens, UniProt P35968).
Vascular endothelial growth factor receptor 2, sequence (P35968 whole entry): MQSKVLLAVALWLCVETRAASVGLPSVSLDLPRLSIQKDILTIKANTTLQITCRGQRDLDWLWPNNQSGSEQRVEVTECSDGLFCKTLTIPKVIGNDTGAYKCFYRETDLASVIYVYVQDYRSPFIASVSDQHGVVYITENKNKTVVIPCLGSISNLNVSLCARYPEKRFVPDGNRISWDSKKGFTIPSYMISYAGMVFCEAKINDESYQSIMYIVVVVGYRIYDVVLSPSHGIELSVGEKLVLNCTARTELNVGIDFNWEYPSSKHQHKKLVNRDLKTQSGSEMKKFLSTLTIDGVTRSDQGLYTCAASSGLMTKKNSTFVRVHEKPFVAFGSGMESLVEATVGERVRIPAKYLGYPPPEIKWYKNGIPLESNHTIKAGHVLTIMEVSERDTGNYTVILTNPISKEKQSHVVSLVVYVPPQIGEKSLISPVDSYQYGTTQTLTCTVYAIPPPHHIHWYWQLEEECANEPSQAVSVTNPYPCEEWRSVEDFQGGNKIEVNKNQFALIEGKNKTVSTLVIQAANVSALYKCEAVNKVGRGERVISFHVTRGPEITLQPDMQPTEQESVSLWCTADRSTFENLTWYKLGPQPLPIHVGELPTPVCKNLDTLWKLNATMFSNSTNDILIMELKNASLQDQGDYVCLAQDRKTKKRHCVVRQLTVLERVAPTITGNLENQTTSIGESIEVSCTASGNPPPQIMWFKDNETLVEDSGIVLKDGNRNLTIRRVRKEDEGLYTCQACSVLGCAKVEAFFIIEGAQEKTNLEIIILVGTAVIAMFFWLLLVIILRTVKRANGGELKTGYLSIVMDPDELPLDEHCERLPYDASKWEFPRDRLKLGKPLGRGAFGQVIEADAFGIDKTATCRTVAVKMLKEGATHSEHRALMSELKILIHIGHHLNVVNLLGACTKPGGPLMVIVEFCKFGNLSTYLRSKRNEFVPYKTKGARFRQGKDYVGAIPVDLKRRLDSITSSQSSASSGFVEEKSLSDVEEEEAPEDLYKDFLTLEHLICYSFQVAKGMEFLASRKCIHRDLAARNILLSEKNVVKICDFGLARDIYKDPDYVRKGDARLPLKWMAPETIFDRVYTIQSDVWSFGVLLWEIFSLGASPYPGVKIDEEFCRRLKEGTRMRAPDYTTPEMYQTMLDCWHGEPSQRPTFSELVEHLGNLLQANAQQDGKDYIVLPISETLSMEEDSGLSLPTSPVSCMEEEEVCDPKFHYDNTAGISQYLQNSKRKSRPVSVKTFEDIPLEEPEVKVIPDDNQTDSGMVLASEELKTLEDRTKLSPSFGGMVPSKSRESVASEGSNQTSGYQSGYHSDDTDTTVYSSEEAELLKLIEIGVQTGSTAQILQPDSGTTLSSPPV

Point of comparison: `COc1ccccc1NC(=O)c1ccc(CSc2nnc3c(n2)[nH]c2ccccc23)cc1`, IC50 1.6 nM. Against it:
- CNC(=O)c1csc2cc(Oc3ccnc4cc(C5=NCCN5C)sc34)ccc12 — 4.7-fold lower, 0.34 nM
- O=C(Nc1ccc(Oc2ncnc3sc4c(c23)CCCC4)cc1)c1ccccc1 — 2.6-fold higher, 4.1 nM
- C[C@@H]1Oc2ccc(-c3csc(NC(=O)c4cccc(Cl)c4)n3)cc2NC1=O — 2.1-fold higher, 3.4 nM
- CCOc1ccc(Nc2cnnc(Nc3ccc(OCC)cc3)n2)cc1 — 2.6-fold higher, 4.1 nM
- COc1ccc(OC)c(NC(=O)c2ccc(CSc3ncnc4[nH]cnc34)cc2)c1 — 3.7-fold higher, 5.9 nM
- CCOC(=O)CSc1nc2c(c(=O)[nH]c(=O)n2C)n1Cc1cccc(C)c1 — 1.8-fold higher, 2.9 nM
- NC(=O)c1cc(-c2ccccc2)sc1NC(=O)c1ccc(OC(F)F)cc1 — 3.5-fold higher, 5.6 nM
- Cc1ccc2nc(NC(=O)Cc3csc(NC(=O)Nc4cccc(Cl)c4)n3)sc2c1 — 2.6-fold higher, 4.2 nM
- O=C(COc1cccc(NC(=O)c2cccnc2)c1)Nc1ccc(Br)cc1 [ASN01107570] — 3.1-fold higher, 5 nM
- Cc1nc2ccccc2n1C1CCN(CC(=O)Nc2ccccc2Br)CC1 [ASN06356088] — 6.2-fold higher, 10 nM
- CNC(=O)c1cc(COc2nnc(Nc3ccc(Cl)cc3)c3ccoc23)ccn1 [TELATINIB] — 3.8-fold higher, 6 nM
